# Reference: patent publication US8815306B2, “Methods and compositions for promoting bone and joint health” (Metaproteomics, LLC, priority 2007, dated 2014)
# Read-outs that look alike come from different tables or passages of the source.
# Columns and labels:
# [1] = test system: TNFα induced MMP-13 expression; assay: TNFα induced MMP-13 expression in human chondrocyte cell line SW1353; settings: for activity at 20 µg/mL / activity at 1 µg/mL / activity at 5 µg/mL / activity at 10 µg/mL: Homo sapiens, SW1353, 24 h; for activity at 20 µg/mL / TNFa Stimulated MMP-13 n = 1 / TNFa Stimulated MMP-13 average / activity at 1 µg/mL / activity at 5 µg/mL / activity at 10 µg/mL: TNF pos = 100%; for Dose dependence of inhibition of TNFα induced MMP-13 expression: Example 2, 20, 10, 5 and 1 ug/ml
# Experimental: The SW1353 human chondrocyte cell line was used as described below.
# Cells were grown and subcultured in 96-well plates at a density of 8×10^4 cells per well and allowed to reach ˜80% confluence overnight. Test compounds in medium were added to the cells at a final concentration of 0.1% DMSO. Following one hour of incubation with the test compounds, TNFα (10 ng/ml) or medium alone was added to the cell wells and incubation continued for 24 hours. The supernatant media was subsequently collected for MMP-13 determination.
# Determination of MMP-13: A commercial, non-radioactive procedure for quantification of MMP-13 was used according to the manufacturer's instructions using MMP-13 as a standard. A minimum of 3 wells were used for each test condition.
# The amount of MMP-13 release into the medium was determined by comparison of the MMP-13 generated in the presence or absence of TNFα and test compounds. A minimum of three wells were used for each test condition. The basal MMP-without 13 levels without TNFα stimulation was subtracted from TNF stimulation to determine the TNFα induced MMP-13 expression in the medium and the levels normalized to 100%. The percent activity of test compounds was measured in the presence of TNFα and referred as TNFα induced MMP-13 expression.
# A minimum of three concentrations were used to determine the dose-response curve and a median inhibitory concentration (IC50).
# [2] = test system: sRANKL mediated TRAP activity (osteoclastogenesis), RAW 264.7; assay: sRANKL mediated osteoclastogenesis: TRAP activity in RAW 264.7 cells; settings: for activity at 5 µg/mL / activity at 10 µg/mL: Mus musculus, RAW264.7, read-out: % TRAP Activity average; for % TRAP activity average (sRANKL induced TRAP activity): RAW 264.7 cells, sRANKL alone normalized to 100%; for % TRAP Activity average: Table 8, RAW 264.7, sRANKL 50 ng/ml, RANKL = 100%
# Experimental: Following overnight incubation with the test compounds, sRANKL (50 ng/ml) or medium alone was added to the cell wells. The medium was replaced after 2 days with test compounds and sRANKL and incubation was continued for 3 additional days.
# The cells were washed twice with ice cold PBS and lysed in 150 μl of 0.2% triton x-100 in PBS. TRAP activity in cell lysates was determined by using TRAP solution from the kit (Sigma 387A1 kit), according to the manufacturers instructions. A 100 μl cell lysates was added to 100 μl of TRAP solution in 96 well plate and incubated at 37° C. for 1 hr. The absorbance was measured at 555 nm using a plate reader. The protein concentration was estimated using BCA reagent (Sigma) and the final activity was normalized for equal protein.
# Inhibition of TRAP activity was determined by comparison of the TRAP activity in the presence of with and with out test compounds in sRANKL, activated osteoclasts. A minimum of two wells were used for each concentration.
# Inhibition of TRAP activity was determined by comparison in the presence of with and with out test compounds in sRANKL activated osteoclasts. A minimum of two wells were used for each concentration. The basal TRAP activity levels with out sRANKL stimulation was subtracted from sRANKL stimulation to get the sRANKL induced TRAP activity and the activity was normalized to 100%. The percent activity of test compounds was measured in the presence of sRANKL and referred as sRANKL induced TRAP activity.
# A minimum of three concentrations were used to determine median inhibitory concentration (IC50).
# [3] = read-out: TNFa Stimulated MMP-13 average, Table 4, 20 ug/mL, SW1353, TNFα 10 ng/ml 24 h
# [4] = Table 4, 20 ug/mL, SW1353, TNFα 10 ng/ml 24 h
# [5] = read-out: TNFa Stimulated MMP-13 average, Table 5, 1 ug/mL, SW1353
# [6] = read-out: TNFa Stimulated MMP-13 average, Table 5, 5 ug/mL, SW1353
# [7] = read-out: TNFa Stimulated MMP-13 average, Table 5, 10 ug/mL, SW1353
# [8] = read-out: TNFa Stimulated MMP-13 average, Table 5, 20 ug/mL, SW1353
Compound,"activity at 20 µg/mL [1, 3]",activity at 5 µg/mL [2],activity at 10 µg/mL [2],% TRAP activity average (sRANKL induced TRAP activity) ([2]; 1 ug/mL test compound),% TRAP activity average (sRANKL induced TRAP activity) ([2]; 5 ug/mL test compound),% TRAP activity average (sRANKL induced TRAP activity) ([2]; 10 ug/mL test compound),"TNFa Stimulated MMP-13 average [1, 4]",other results
O=C1O[C@H]([C@@H](O)CO)C(O)=C1O [Vitamin C],370%,–,–,–,–,–,–,–
C[C@@H]1O[C@@H](OC[C@H]2O[C@@H](Oc3c(-c4ccc(O)c(O)c4)oc4cc(O)cc(O)c4c3=O)[C@H](O)[C@@H](O)[C@@H]2O)[C@H](O)[C@H](O)[C@H]1O [Rutin],-7%,106%,74%,–,–,–,–,–
C/C=C1/[C@H](O[C@@H]2O[C@H](CO)[C@@H](O)[C@H](O)[C@H]2O)OC=C(C(=O)OC)[C@H]1CC(=O)OCCc1ccc(O)c(O)c1 [Oleuropein],-31%,82%,81%,–,–,–,–,–
"COc1ccc2cc3[n+](cc2c1OC)CCc1cc2c(cc1-3)OCO2 [Berberine, 7,8,13,13a-tetrahydro-9,10-dimethoxy-2,3-(methylenedioxy)-berbinium]",-39%,4%,-8%,68%,15%,7%,–,"TNFa Stimulated MMP-13 n = 1 ([1]; Table 5, 1 ug/mL, SW1353): −1%; TNFa Stimulated MMP-13 n = 1 ([1]; Table 5, 5 ug/mL, SW1353): −4%; TNFa Stimulated MMP-13 n = 1 ([1]; Table 5, 10 ug/mL, SW1353): −4%; TNFa Stimulated MMP-13 n = 1 ([1]; Table 5, 20 ug/mL, SW1353): −4%"
O=c1c(-c2ccc(O)cc2)coc2cc(O)cc(O)c12 [Genistein],27%,91%,72%,–,–,–,–,–
O=C(CCc1ccc(O)cc1)c1c(O)cc(O)cc1O[C@@H]1O[C@H](CO)[C@@H](O)[C@H](O)[C@H]1O [Phloridzin],77%,103%,150%,–,–,–,–,–
O=C([O-])CC(O)(CC(=O)[O-])C(=O)[O-].[K+].[K+].[K+] [Potassium Citrate],–,–,–,–,–,–,95%,–
Oc1ccc(C=Cc2cc(O)cc(O)c2)cc1 [Resveratrol],-42%,11%,2%,117%,17%,16%,–,"Dose dependence of inhibition of TNFα induced MMP-13 expression ([1]; SW1353): dose dependently (20, 10, and 1 ug/ml) inhibited; activity at 1 µg/mL [1, 5]: 96%; activity at 5 µg/mL [1, 6]: 88%; activity at 10 µg/mL [1, 7]: 53%; activity at 20 µg/mL [1, 8]: 45%"
CC/C=C\C/C=C\C/C=C\C/C=C\C/C=C\C/C=C\CCC(=O)O [DHA],–,–,–,–,–,–,265%,% TRAP Activity average ([2]; 5 ug/mL): 120%; % TRAP Activity average ([2]; 10 ug/mL): 105%
CC1(C)C=Cc2c(ccc3c2OC[C@@H](c2ccc(O)cc2O)C3)O1 [Glabridin],79%,82%,75%,–,–,–,–,–
CC(C)=CCC/C(C)=C/CC/C(C)=C/CC/C(C)=C/CC1=C(C)C(=O)c2ccccc2C1=O [Vitamin K2],–,–,–,–,–,–,56%,–
Hyaluronic Acid,–,–,–,122%,130%,111%,105%,% TRAP Activity average ([2]; 5 ug/mL): 35%; % TRAP Activity average ([2]; 10 ug/mL): 2%
"CC(C)Oc1ccc2c(=O)c(-c3ccccc3)coc2c1 [Ipriflavone, reference compound]",-42%,–,–,168%,164%,82%,–,"Dose dependence of inhibition of TNFα induced MMP-13 expression ([1]; SW1353): dose dependently (20, 10, and 1 ug/ml) inhibited; activity at 1 µg/mL [1, 5]: 86%; activity at 5 µg/mL [1, 6]: 20%; activity at 10 µg/mL [1, 7]: 0%; activity at 20 µg/mL [1, 8]: 3%"
CCCCC/C=C\C/C=C\CCCCCCCC(=O)O [Linoleic Acid],23%,–,–,–,–,–,–,–
CC1(C)CC[C@]2(C(=O)O)CC[C@]3(C)C(=CC[C@@H]4[C@@]5(C)CC[C@H](O)C(C)(C)[C@@H]5CC[C@]43C)[C@@H]2C1 [Oleanolic Acid],–,61%,35%,139%,63%,32%,–,"activity at 10 µg/mL ([1]; read-out: TNFa Stimulated MMP-13 average, Table 4, 10 ug/mL, SW1353, TNFα 10 ng/ml 24 h): 17%; TNFa Stimulated MMP-13 n = 1 ([1]; Table 5, 1 ug/mL, SW1353): 95%; TNFa Stimulated MMP-13 n = 1 ([1]; Table 5, 5 ug/mL, SW1353): 38%; TNFa Stimulated MMP-13 n = 1 ([1]; Table 5, 10 ug/mL, SW1353): 43%; TNFa Stimulated MMP-13 n = 1 ([1]; Table 5, 20 ug/mL, SW1353): 26%"
Inulin,–,–,–,–,–,–,33%,% TRAP Activity average ([2]; 5 ug/mL): 87%; % TRAP Activity average ([2]; 10 ug/mL): 69%
N[C@H]1C(O)O[C@H](CO)[C@@H](O)[C@@H]1O (some centres unmarked) [Glucosamine],77%,75%,48%,179%,183%,269%,–,"TNFa Stimulated MMP-13 n = 1 ([1]; Table 5, 1 ug/mL, SW1353): 126%; TNFa Stimulated MMP-13 n = 1 ([1]; Table 5, 5 ug/mL, SW1353): 137%; TNFa Stimulated MMP-13 n = 1 ([1]; Table 5, 10 ug/mL, SW1353): 107%; TNFa Stimulated MMP-13 n = 1 ([1]; Table 5, 20 ug/mL, SW1353): 105%"
O=c1c(O)c(-c2ccc(O)c(O)c2)oc2cc(O)cc(O)c12 [Quercetin],-65%,73%,62%,–,–,–,–,–
COc1ccc([C@@H]2CC(=O)c3c(O)cc(O[C@@H]4O[C@H](CO[C@@H]5O[C@@H](C)[C@H](O)[C@@H](O)[C@H]5O)[C@@H](O)[C@H](O)[C@H]4O)cc3O2)cc1O [Hesperidin],–,–,–,–,–,–,13%,% TRAP Activity average ([2]; 5 ug/mL): 81%; % TRAP Activity average ([2]; 10 ug/mL): 76%
Conjugated Linoleic acid,–,–,–,86%,81%,79%,–,–
"C[C@]12CC[C@H](O)CC1=CC[C@@H]1[C@@H]2CC[C@]2(C)C(=O)CC[C@@H]12 [DHEA, reference compound]",–,–,–,–,–,–,−2%,"Dose dependence of inhibition of TNFα induced MMP-13 expression ([1]; SW1353): dose dependently (20, 10, and 1 ug/ml) inhibited; TNFa Stimulated MMP-13 average ([1]; Table 5, 1 ug/mL, SW1353): 111%; TNFa Stimulated MMP-13 average ([1]; Table 5, 5 ug/mL, SW1353): 108%; TNFa Stimulated MMP-13 average ([1]; Table 5, 10 ug/mL, SW1353): 64%; TNFa Stimulated MMP-13 average ([1]; Table 5, 20 ug/mL, SW1353): 5%; % TRAP Activity average ([2]; 5 ug/mL): 46%; % TRAP Activity average ([2]; 10 ug/mL): 33%"
